Assay results from patent US10052320B2, “Substituted quinoxalines as FGFR kinase inhibitors” (ASTEX THERAPEUTICS LIMITED, priority 2011, dated 2018).
Like-named read-outs stand apart in the source and are kept apart here.

Tests used:
FGFR1 (h) = FGFR1 (h) (Homo sapiens, UniProt P11362); assay: FGFR1 (enzymatic assay), TR-FRET; format: biochemical; settings: read-out: FGFR 1 pIC50 (converted)
Procedure: In a final reaction volume of 30 μL, FGFR1 (h) (25 ng/ml) was incubated with 50 mM HEPES pH 7.5, 6 mM MnCl2, 1 mM DTT, 0.1 mM Na3VO4, 0.01% Triton-X-100, 500 nM Btn-Flt3 and 5 μM ATP in the presence of compound (1% DMSO final). […] Time-Resolved Fluorescence Resonance Energy Transfer (TR-FRET) signal (ex340 nm. Em 620 nm, em 655 nm) was measured afterwards and results are expressed in RFU (Relative Fluorescence Units).

FGFR3 (h) = FGFR3 (h) (Homo sapiens, UniProt P22607); assay: FGFR3 (enzymatic assay), TR-FRET; format: biochemical; settings: read-out: FGFR 3 pIC50 (converted)
Procedure: In a final reaction volume of 30 μL, FGFR3 (h) (40 ng/ml) was incubated with 50 mM HEPES pH 7.5, 6 mM MnCl2, 1 mM DTT, 0.1 mM Na3VO4, 0.01% Triton-X-100, 500 nM Btn-Flt3 and 25 μM ATP in the presence of compound (1% DMSO final). […] Time-Resolved Fluorescence Resonance Energy Transfer (TR-FRET) signal (ex340 nm. Em 620 nm, em 655 nm) was measured afterwards and results are expressed in RFU (Relative Fluorescence Units).

KDR (h) (VEGFR2) = KDR (h) (VEGFR2) (Homo sapiens, UniProt P35968); assay: KDR (VEGFR2) (enzymatic assay), TR-FRET; format: biochemical
Procedure: KDR (VEGFR2) (Enzymatic Assay)
In a final reaction volume of 30 μL, KDR (h) (150 ng/ml) was incubated with 50 mM HEPES pH 7.5, 6 mM MnCl2, 1 mM DTT, 0.1 mM Na3VO4, 0.01% Triton-X-100, 500 nM Btn-Flt3 and 3 μM ATP in the presence of compound (1% DMSO final). After incubation for 120 minutes at room temperature the reaction was stopped with 2.27 nM EU-anti P-Tyr, 7 mM EDTA, 31.25 nM SA-XL-665 and 0.02% BSA which was present for 60 minutes at room temperature. Time-Resolved Fluorescence Resonance Energy Transfer (TR-FRET) signal (ex340 nm. Em 620 nm, em 655 nm) was measured afterwards and results are expressed in RFU (Relative Fluorescence Units).

[1] = biological target: Ba/F3-FGFR1-transfected cells (Homo sapiens, UniProt P11362); assay: Ba/F3-FGFR1 (minus IL3) cellular proliferation assay, Alamar Blue; format: cell-based; settings: for BAF3-FGFR 1 (MIN IL3) 384 well pIC50: minus IL3, 384 well; for BAF3-FGFR 1 (MIN IL3) 96 well pIC50: minus IL3, 96 well
Procedure: (§1) Ba/F3-FGFR1 (Minus IL3 or Plus IL3) (Cellular Proliferation Assay)
Cells were put in an incubator at 37° C. and 5% CO2. After 24 hours, 10 μl of Alamar Blue solution (0.5 mM K3Fe(CN)6, 0.5 mM KaFe(CN)6, 0.15 mM Resazurin and 100 mM Phosphate Buffer) was added to the wells, incubated for 4 hours at 37° C. and 5% CO2 before RFU's (Relative Fluorescence Units) (ex. 540 nm., em. 590 nm.) were measured in a flurorescence plate reader. […]
(§2) In a 96 well plate, 180 μl cell culture medium (phenol red free RPMI-1640, 10% FBS, 2 mM L-Glutamine and 50 μg/ml Gentamycin) containing 10000 cells per well of Ba/F3-FGFR1-transfected cells were pipette and 20 μl of compound dilution in DMSO was added. Cells were put in an incubator at 37° C. and 5% CO2. After 24 hours, 40 μl of Alamar Blue solution (0.5 mM K3Fe(CN)6, 0.5 mM KaFe(CN)6, 0.15 mM Resazurin and 100 mM Phosphate Buffer) was added to the wells, incubated for 4 hours at 37° C. and 5% CO2 before RFU's (Relative Fluorescence Units) (ex. 540 nm., em. 590 nm.) were measured in a flurorescence plate reader.

[2] = system: Ba/F3-FGFR1-transfected cells in the presence of 10 ng/ml murine IL3; assay: Ba/F3-FGFR1 (plus IL3) cellular proliferation counterscreen, Alamar Blue; format: cell-based; settings: Mus musculus
Procedure: as §1
as §2, with “a 384” for “a 96”, “plate, 100 nl of compound dilution in DMSO was sprayed before adding 50” for “plate, 180”, “containing 20000” for “containing 10000”, “Ba/F3-FGFR1-transfected cells.” for “Ba/F3-FGFR1-transfected cells were pipette and 20 μl of compound dilution in DMSO was added.”, “hours, 10” for “hours, 40”
As a counterscreen the same experiment was performed in the presence of 10 ng/ml murine IL3.
as §2

[3] = biological target: Ba/F3-FGFR4-transfected cells (Homo sapiens, UniProt P22455); assay: Ba/F3-FGFR4 cellular proliferation assay, Alamar Blue; format: cell-based
Procedure: Ba/F3-FGFR4 (Cellular Proliferation Assay)
as §2, with “a 384” for “a 96”, “plate, 100 nl of compound dilution in DMSO was sprayed before adding 50” for “plate, 180”, “containing 20000” for “containing 10000”, “of Ba/F3-FGFR4-transfected cells.” for “of Ba/F3-FGFR1-transfected cells were pipette and 20 μl of compound dilution in DMSO was added.”, “hours, 10” for “hours, 40”

[4] = plus IL3, 384 well, read-out: BAF3-FGFR 1 (PLUS IL3) 384 well pIC50 (converted)

Chain of KDR (h) (VEGFR2) (P35968 20-1356): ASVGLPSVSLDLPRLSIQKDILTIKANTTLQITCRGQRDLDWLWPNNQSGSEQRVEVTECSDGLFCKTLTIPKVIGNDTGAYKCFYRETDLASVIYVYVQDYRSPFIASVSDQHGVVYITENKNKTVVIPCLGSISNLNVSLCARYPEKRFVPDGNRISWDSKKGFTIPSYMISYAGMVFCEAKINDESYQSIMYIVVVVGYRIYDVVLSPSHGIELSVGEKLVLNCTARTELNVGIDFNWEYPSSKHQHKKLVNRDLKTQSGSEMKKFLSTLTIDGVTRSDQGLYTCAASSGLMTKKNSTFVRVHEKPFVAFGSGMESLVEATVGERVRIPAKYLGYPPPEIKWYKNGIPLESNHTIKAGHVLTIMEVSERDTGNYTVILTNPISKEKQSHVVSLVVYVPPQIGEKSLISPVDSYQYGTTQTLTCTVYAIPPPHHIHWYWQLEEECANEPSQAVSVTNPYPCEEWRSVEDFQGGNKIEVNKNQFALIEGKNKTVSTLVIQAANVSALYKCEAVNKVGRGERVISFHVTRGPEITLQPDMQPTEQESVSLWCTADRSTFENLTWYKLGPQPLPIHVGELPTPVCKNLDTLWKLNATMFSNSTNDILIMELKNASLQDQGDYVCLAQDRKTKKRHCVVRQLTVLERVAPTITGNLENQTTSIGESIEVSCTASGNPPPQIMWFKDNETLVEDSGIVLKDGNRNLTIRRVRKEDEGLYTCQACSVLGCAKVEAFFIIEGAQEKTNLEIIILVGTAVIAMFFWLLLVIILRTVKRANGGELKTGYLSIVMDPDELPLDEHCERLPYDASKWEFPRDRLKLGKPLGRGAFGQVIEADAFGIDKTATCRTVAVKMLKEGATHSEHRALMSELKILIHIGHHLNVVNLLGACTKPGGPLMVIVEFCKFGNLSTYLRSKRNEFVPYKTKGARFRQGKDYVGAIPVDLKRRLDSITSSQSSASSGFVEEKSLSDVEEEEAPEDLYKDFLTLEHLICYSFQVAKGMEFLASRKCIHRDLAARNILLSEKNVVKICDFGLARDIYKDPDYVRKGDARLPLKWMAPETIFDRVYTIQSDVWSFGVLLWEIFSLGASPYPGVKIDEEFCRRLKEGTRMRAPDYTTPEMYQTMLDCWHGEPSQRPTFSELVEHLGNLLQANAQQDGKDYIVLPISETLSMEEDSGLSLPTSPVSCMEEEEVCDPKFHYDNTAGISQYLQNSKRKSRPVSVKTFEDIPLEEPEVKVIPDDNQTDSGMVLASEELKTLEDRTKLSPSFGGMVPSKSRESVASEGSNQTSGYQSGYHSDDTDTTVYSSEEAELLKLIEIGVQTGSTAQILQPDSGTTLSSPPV
Chain of FGFR1 (h) (P11362 22-822): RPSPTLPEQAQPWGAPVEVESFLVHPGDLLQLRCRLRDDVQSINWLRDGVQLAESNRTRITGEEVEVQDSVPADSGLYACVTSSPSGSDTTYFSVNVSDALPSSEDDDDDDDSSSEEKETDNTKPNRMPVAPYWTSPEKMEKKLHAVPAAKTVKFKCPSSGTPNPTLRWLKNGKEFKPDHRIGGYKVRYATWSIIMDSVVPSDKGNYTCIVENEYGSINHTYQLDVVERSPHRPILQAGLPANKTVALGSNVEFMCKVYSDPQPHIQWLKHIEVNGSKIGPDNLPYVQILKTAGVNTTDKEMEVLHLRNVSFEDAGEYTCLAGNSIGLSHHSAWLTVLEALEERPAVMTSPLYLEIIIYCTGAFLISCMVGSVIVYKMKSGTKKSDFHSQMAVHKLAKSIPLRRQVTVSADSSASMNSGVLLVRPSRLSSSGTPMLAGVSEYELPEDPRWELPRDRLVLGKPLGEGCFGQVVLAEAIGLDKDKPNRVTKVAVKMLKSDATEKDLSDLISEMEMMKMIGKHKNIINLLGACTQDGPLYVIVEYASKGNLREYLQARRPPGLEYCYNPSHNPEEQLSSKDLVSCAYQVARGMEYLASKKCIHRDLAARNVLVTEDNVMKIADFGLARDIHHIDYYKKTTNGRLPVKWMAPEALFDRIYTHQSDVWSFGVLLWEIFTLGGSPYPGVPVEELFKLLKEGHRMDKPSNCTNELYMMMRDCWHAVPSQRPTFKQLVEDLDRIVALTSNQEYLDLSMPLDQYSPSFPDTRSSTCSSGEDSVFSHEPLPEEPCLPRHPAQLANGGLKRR
Chain of Ba/F3-FGFR1-transfected cells (P11362 whole entry, change not shown): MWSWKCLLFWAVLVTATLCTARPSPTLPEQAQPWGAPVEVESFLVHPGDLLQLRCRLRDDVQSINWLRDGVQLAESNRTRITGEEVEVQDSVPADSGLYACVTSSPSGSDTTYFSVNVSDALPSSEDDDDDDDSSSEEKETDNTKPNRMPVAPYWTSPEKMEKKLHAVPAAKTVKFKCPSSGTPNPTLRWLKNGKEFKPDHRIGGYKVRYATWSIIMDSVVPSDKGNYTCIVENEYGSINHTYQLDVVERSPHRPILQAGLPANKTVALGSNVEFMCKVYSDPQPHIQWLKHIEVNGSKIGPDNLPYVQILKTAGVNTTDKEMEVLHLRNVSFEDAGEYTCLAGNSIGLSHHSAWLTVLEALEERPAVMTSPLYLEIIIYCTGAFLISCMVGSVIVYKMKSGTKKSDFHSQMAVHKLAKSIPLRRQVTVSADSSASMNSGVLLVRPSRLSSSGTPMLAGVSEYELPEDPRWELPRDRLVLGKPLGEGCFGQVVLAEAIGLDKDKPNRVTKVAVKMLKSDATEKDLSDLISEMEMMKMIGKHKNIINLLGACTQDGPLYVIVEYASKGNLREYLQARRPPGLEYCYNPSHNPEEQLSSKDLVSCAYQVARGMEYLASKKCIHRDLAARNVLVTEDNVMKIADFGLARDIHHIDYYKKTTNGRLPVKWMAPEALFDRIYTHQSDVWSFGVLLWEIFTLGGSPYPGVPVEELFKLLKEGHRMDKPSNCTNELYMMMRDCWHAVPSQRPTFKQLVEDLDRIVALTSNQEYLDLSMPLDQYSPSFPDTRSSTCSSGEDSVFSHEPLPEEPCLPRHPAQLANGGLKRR
Chain of Ba/F3-FGFR4-transfected cells (P22455 whole entry, change not shown): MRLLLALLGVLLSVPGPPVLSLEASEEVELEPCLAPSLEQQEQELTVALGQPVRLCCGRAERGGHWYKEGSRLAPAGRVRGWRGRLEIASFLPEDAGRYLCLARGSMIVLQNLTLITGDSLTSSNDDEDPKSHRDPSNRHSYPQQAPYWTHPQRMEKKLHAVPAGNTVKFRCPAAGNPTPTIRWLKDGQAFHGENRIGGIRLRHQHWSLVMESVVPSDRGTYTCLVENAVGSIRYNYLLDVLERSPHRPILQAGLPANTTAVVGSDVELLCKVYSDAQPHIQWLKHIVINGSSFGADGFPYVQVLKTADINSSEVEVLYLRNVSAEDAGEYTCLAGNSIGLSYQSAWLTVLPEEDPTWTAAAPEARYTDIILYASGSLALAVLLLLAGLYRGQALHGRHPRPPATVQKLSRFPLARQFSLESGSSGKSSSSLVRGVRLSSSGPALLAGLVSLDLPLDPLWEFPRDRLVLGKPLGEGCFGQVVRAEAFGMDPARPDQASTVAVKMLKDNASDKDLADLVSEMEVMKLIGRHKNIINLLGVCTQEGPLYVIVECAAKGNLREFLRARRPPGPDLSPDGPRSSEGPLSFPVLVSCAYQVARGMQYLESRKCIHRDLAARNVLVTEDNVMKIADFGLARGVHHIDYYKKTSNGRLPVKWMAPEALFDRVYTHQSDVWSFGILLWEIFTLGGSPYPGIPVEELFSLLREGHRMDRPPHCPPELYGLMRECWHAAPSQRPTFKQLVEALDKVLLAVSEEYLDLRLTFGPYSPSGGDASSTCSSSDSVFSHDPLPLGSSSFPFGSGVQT
Chain of FGFR3 (h) (P22607 23-806): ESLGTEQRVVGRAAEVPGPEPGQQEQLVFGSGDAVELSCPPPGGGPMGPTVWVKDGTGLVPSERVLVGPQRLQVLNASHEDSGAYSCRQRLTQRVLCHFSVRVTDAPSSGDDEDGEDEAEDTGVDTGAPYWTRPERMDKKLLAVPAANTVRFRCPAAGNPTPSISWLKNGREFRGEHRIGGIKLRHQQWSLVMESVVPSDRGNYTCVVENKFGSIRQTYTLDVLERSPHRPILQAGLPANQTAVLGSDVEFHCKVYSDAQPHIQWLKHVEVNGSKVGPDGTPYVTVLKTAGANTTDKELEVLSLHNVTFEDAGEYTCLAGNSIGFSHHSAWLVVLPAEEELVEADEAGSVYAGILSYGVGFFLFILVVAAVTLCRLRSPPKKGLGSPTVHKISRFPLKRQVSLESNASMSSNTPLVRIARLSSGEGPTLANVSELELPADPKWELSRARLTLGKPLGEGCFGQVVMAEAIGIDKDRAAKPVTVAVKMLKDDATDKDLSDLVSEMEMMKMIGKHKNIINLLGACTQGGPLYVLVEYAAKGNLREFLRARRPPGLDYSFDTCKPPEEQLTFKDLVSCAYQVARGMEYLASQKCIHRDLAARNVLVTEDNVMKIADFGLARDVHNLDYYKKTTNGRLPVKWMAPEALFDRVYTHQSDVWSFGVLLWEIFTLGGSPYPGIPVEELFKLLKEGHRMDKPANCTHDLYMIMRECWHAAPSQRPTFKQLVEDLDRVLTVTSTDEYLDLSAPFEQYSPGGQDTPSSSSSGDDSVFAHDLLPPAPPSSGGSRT

SMILES | IC50 (FGFR1 (h)) | IC50 (FGFR3 (h)) | IC50 (KDR (h) (VEGFR2)) | BAF3-FGFR 1 (MIN IL3) 384 well pIC50 [1] | IC50 [2, 4] | BAF3-FGFR4 pIC50 [3] | BAF3-FGFR 1 (MIN IL3) 96 well pIC50 [1] | BAF3-FGFR4 pIC50 ([3]; 384 well) | IC50 ([2]; plus IL3, 96 well, read-out: BAF3-FGFR 1 (PLUS IL3) 96 well pIC50 (converted))
COc1cc(OC)cc(N(CCN2CCOCC2)c2ccc3ncc(-c4ccc(NC(=O)N5CCOCC5)nc4)nc3c2)c1 [Compound 35] | 12 nM | 10 nM | 229 nM | 6.36 | > 10000 nM | 6.0 |  |  | 
COc1cc(OC)cc(N(CC2CC2)c2ccc3ncc(-c4cccc(N5CCOCC5)c4)nc3c2)c1 [Compound 92] | 363 nM | 263 nM | 1950 nM | <5 |  | <5 | <5 |  | 
COc1cc(OC)cc(N(CCO)c2ccc3ncc(-c4ccc(N5CCN(C)CC5)nc4)nc3c2)c1 [Compound 163] | 7.41 nM | 7.94 nM | 355 nM | 6.15 | ~10000 nM | <5 |  |  | 
CO/N=C(\C)c1cnc2ccc(N(CCO)c3cc(OC)cc(OC)c3)cc2n1 [Compound 29] | 55 nM | 38.9 nM | > 1000 nM | 6.41 | > 10000 nM | <5 |  |  | 
CNc1ccc(-c2cnc3ccc(N(CCCNCC(F)(F)F)c4cc(OC)cc(OC)c4)cc3n2)cn1 [Compound 129] | 19.5 nM | 52.5 nM | 363 nM | 5.62 | > 10000 nM | 5.4 |  |  | 
COc1cc(OC)cc(N(CCN)c2ccc3ncc(-c4ccn(C)c4)nc3c2)c1 [Compound 79] | 1.2 nM | 1.86 nM | 22.4 nM | 6.9 | > 10000 nM | 6.7 |  |  | 
COc1cc(OC)cc(N(CC2CC2)c2ccc3ncc(-c4cnc5[nH]ccc5c4)nc3c2)c1 [Compound 88] | 575 nM | 380 nM | > 10000 nM | <5 |  |  |  | <5 | 
COc1cc(OC)cc(N(CC2CC2)c2ccc3ncc(-c4ccc5c(c4)OCO5)nc3c2)c1 [Compound 87] | 617 nM | 209 nM | > 10000 nM | <5.4 |  |  |  | <5 | 
COc1cc(OC)cc(N(CCO)c2ccc3ncc(-c4ccnc(C(=O)NCCCCCN)c4)nc3c2)c1 [Compound 138] | 22.9 nM | 16.2 nM | 759 nM | <5 |  | 5.1 |  |  | 
COc1cc(OC)cc(N(CCCO)c2ccc3ncc(-c4cnc(N5CCN(C)CC5)c(C)c4)nc3c2)c1 [Compound 135] | 2 nM | 2.45 nM | 170 nM | 6.42 |  | 6.1 |  |  | 
COc1cc(OC)cc(N(CC2CC2)c2ccc3ncc(-c4ccc5[nH]ccc5c4)nc3c2)c1 [Compound 86] | 513 nM | 417 nM | > 10000 nM | <5 |  |  |  | <5 | 
COc1cc(OC)cc(N(CCO)c2ccc3ncc(N4CCC(CN)CC4)nc3c2)c1 [Compound 84] | 44.7 nM | 40.7 nM | > 1000 nM | 5.05 |  | <5 |  |  | 
COc1cc(OC)cc(N(CC2CC2)c2ccc3ncc(-n4cccn4)nc3c2)c1 [Compound 95] | 1320 nM | 1450 nM | > 10000 nM | <5 |  | <5 |  |  | 
COc1cc(OC)cc(N(CCCNC(C)C)c2ccc3ncc(-c4ccnc(NC(=O)OC(C)(C)C)c4)nc3c2)c1 [Compound 137] | 3.72 nM | 8.51 nM | 275 nM | 5.75 |  | 6.1 |  |  | 
COc1cc(OC)cc(N(CCNC(C)C)c2ccc3ncc(-c4ccnn4C4CCCCO4)nc3c2)c1 (stereo not drawn) [Compound 188] | 10 nM | 17.8 nM |  | 6.46 | > 10000 nM | 6.05 |  |  | 
COc1cc(OC)cc(N(CCO)c2ccc3ncc(-c4ccc(N5CCNCC5)cc4)nc3c2)c1 [Compound 166] | 0.513 nM | 0.832 nM | 23.4 nM |  | 4790 nM | 6.7 |  |  | 
COc1cc(OC)cc(N(CC2CC2)c2ccc3ncc(-c4ccnc(N5CCOCC5)c4)nc3c2)c1 [Compound 90] | 589 nM | 282 nM | > 10000 nM |  |  |  | 5.06 |  | > 10000 nM
COc1cc(OC)cc(N(CC2CC2)c2ccc3ncc(-c4nnc(C)o4)nc3c2)c1 [Compound 85] | 302 nM | 191 nM | 8320 nM | <5 |  |  |  | <5 | 
